Experimental data as given in PubChem BioAssay AID328 (DTP/NCI, 2004).
Values joined by “and” are separate entries in the source; they are usually repeats but may differ in a detail not shown here. Equal values may be shown once. Toxic doses and inconclusive results are not listed.

Test system: BDF1 mice, P388 leukemia ip, median survival T/C
Assay: NCI In Vivo Anticancer Drug Screen. Data for tumor model P388 Leukemia (intraperitoneal) in B6D2F1 (BDF1) mice
Conditions: endpoint: median survival time, higher = longer survival
How it was run: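 Antitumour effect was judged in vivo: survival in drug-treated mice, normalised to that of vehicle-dosed controls, gives the reported T/C.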

[1] = dose: 25.0 mg/kg/injection, schedule: Q01DX009 (ip), vehicle: saline with Tween-80
[2] = dose: 50.0 mg/kg/injection, schedule: Q01DX009 (ip), vehicle: saline with Tween-80
[3] = dose: 50.0 mg/kg/injection, schedule: Q04DX003 (ip), vehicle: saline
[4] = dose: 100.0 mg/kg/injection, schedule: Q04DX003 (ip), vehicle: saline
[5] = dose: 200.0 mg/kg/injection, schedule: Q04DX003 (ip), vehicle: saline
[6] = dose: 100.0 mg/kg/injection, schedule: Q01DX009 (ip), vehicle: saline with Tween-80
[7] = dose: 200.0 mg/kg/injection, schedule: Q01DX009 (ip), vehicle: saline with Tween-80
[8] = dose: 12.5 mg/kg/injection, schedule: Q01DX009 (ip), vehicle: saline
[9] = dose: 25.0 mg/kg/injection, schedule: Q01DX009 (ip), vehicle: saline
[10] = dose: 25.0 mg/kg/injection, schedule: Q04DX003 (ip), vehicle: saline with Tween-80
[11] = dose: 50.0 mg/kg/injection, schedule: Q01DX009 (ip), vehicle: saline
[12] = dose: 50.0 mg/kg/injection, schedule: Q04DX003 (ip), vehicle: saline with Tween-80
[13] = dose: 55.0 mg/kg/injection, schedule: Q04DX003 (ip), vehicle: saline
[14] = dose: 100.0 mg/kg/injection, schedule: Q04DX003 (ip), vehicle: saline with Tween-80
[15] = dose: 200.0 mg/kg/injection, schedule: Q04DX003 (ip), vehicle: saline with Tween-80
[16] = dose: 100.0 mg/kg/injection, schedule: Q01DX009 (ip), vehicle: Klucel (hydroxypropylcellulose) (HPC)
[17] = dose: 200.0 mg/kg/injection, schedule: Q01DX009 (ip), vehicle: Klucel (hydroxypropylcellulose) (HPC)
[18] = dose: 400.0 mg/kg/injection, schedule: Q01DX009 (ip), vehicle: Klucel (hydroxypropylcellulose) (HPC)
[19] = dose: 100.0 mg/kg/injection, schedule: Q04DX003 (ip), vehicle: Klucel (hydroxypropylcellulose) (HPC)
[20] = dose: 200.0 mg/kg/injection, schedule: Q04DX003 (ip), vehicle: Klucel (hydroxypropylcellulose) (HPC)
[21] = dose: 400.0 mg/kg/injection, schedule: Q04DX003 (ip), vehicle: Klucel (hydroxypropylcellulose) (HPC)

## COC(=O)C(F)C(Br)C(=O)OC (centres undefined)
[1]
  T/C: 113 % of control
[2]
  T/C: 115 % of control

## CN(C)/C=N/n1cnc2c(ncn2C2OC(CO)C(O)C2O)c1=O (centres undefined)
[3]
  T/C: 108 % of control
[4]
  T/C: 108 % of control
[5]
  T/C: 111 % of control
dose: 400.0 mg/kg/injection, schedule: Q04DX003 (ip), vehicle: saline
  T/C: 101 % of control

## O=C(O)C(c1ccccc1)C1CCCC1 (centres undefined)
[2]
  T/C: 100 % of control
[6]
  T/C: 95 % of control
[7]
  T/C: 109 % of control

## Clc1ccc2nc(CBr)cnc2c1
dose: 12.5 mg/kg/injection, schedule: Q01DX009 (ip), vehicle: other
  T/C: 104 % of control
[8]
  T/C: 120 % of control
dose: 25.0 mg/kg/injection, schedule: Q01DX009 (ip), vehicle: other
  T/C: 109 % of control
[9]
  T/C: 120 % of control
[10]
  T/C: 95 % of control
dose: 35.0 mg/kg/injection, schedule: Q04DX003 (ip), vehicle: saline
  T/C: 108 % of control
dose: 50.0 mg/kg/injection, schedule: Q01DX009 (ip), vehicle: other
  T/C: 118 % of control
[2]
  T/C: 118 % of control
[11]
  T/C: 110 % of control
[12]
  T/C: 109 % of control
[13]
  T/C: 116 % of control
dose: 80.0 mg/kg/injection, schedule: Q04DX003 (ip), vehicle: saline
  T/C: 116 % of control
[14]
  T/C: 109 % of control
[15]
  T/C: 103 % of control

## NC(=O)c1c(N)sc2c1CCCC2
dose: 6.25 mg/kg/injection, schedule: Q01DX009 (ip), vehicle: saline with Tween-80
  T/C: 86 % of control
dose: 12.5 mg/kg/injection, schedule: Q01DX009 (ip), vehicle: saline with Tween-80
  T/C: 86 % of control
[1]
  T/C: 95 % of control

## C1=CC=CCC=C1
dose: 12.5 mg/kg/injection, schedule: Q04DX003 (ip), vehicle: saline
  T/C: 100 % of control
[9]
  T/C: 150 % of control
dose: 25.0 mg/kg/injection, schedule: Q04DX003 (ip), vehicle: saline
  T/C: 113 % of control
[11]
  T/C: 111 % of control
[3]
  T/C: 109 % of control

## Oc1ccccc1O.[O-]c1ccccc1[O-].[O-]c1ccccc1[O-].[O]=[V+2]
dose: 9.37 mg/kg/injection, schedule: Q01DX009 (ip), vehicle: saline
  T/C: 89 % of control
dose: 9.37 mg/kg/injection, schedule: Q04DX003 (ip), vehicle: saline
  T/C: 100 % of control
dose: 18.75 mg/kg/injection, schedule: Q01DX009 (ip), vehicle: saline
  T/C: 94 % of control
dose: 18.75 mg/kg/injection, schedule: Q04DX003 (ip), vehicle: saline
  T/C: 109 % of control
dose: 24.0 mg/kg/injection, schedule: Q04DX003 (ip), vehicle: saline
  T/C: 104 % of control
dose: 24.7 mg/kg/injection, schedule: Q04DX003 (ip), vehicle: saline
  T/C: 100 % of control
dose: 37.0 mg/kg/injection, schedule: Q04DX003 (ip), vehicle: saline
  T/C: 105 % of control
dose: 37.5 mg/kg/injection, schedule: Q01DX009 (ip), vehicle: saline
  T/C: 89 % of control
dose: 37.5 mg/kg/injection, schedule: Q04DX003 (ip), vehicle: saline
  T/C: 100 % of control
[13]
  T/C: 100 % of control
dose: 55.5 mg/kg/injection, schedule: Q04DX003 (ip), vehicle: saline
  T/C: 90 % of control

## CCOc1nc(OCC)nc(-c2cccn2-c2ccccc2)n1
dose: 100.0 mg/kg/injection, schedule: Q01DX001 (ip), vehicle: Klucel (hydroxypropylcellulose) (HPC)
  T/C: 100 % of control
[16]
  T/C: 86 % of control
dose: 200.0 mg/kg/injection, schedule: Q01DX001 (ip), vehicle: Klucel (hydroxypropylcellulose) (HPC)
  T/C: 104 % of control
[17]
  T/C: 100 % of control
dose: 400.0 mg/kg/injection, schedule: Q01DX001 (ip), vehicle: Klucel (hydroxypropylcellulose) (HPC)
  T/C: 90 % of control
[18]
  T/C: 104 % of control

## O=c1cc(-c2ccccc2)nc2c(Cl)cc(Cl)cn12
[19]
  T/C: 89 % of control
[20]
  T/C: 100 % of control
[21]
  T/C: 96 % of control

## CCOC(=O)C1(C(=O)O)CC2C(C)C=CC(C)C2C1 (centres undefined)
[16]
  T/C: 95 % of control
[17]
  T/C: 110 % of control
[18]
  T/C: 100 % of control

## COc1ccc2nccc(C=O)c2c1
[6]
  T/C: 116 % of control
[7]
  T/C: 114 % of control
dose: 400.0 mg/kg/injection, schedule: Q01DX009 (ip), vehicle: saline with Tween-80
  T/C: 117 % of control

## CC(C)=CC(=O)OC1C2C(C)C(=O)OC2C(O)C(C)C2C=CC(=O)C21C (centres undefined)
dose: 3.12 mg/kg/injection, schedule: Q01DX009 (ip), vehicle: saline
  T/C: 94 % of control
dose: 6.25 mg/kg/injection, schedule: Q01DX009 (ip), vehicle: saline
  T/C: 101 % of control
[8]
  T/C: 103 % of control
[9]
  T/C: 120 % of control
dose: 50.0 mg/kg/injection, schedule: Q01DX009 (ip), vehicle: Klucel (hydroxypropylcellulose) (HPC)
  T/C: 118 % of control
[11]
  T/C: 120 % of control

## Cc1cc(-c2ccccc2)c2ccccc2c1N(CC(=O)O)S(=O)(=O)c1ccccc1
dose: 44.0 mg/kg/injection, schedule: Q01DX009 (ip), vehicle: saline with Tween-80
  T/C: 95 % of control and 105 % of control
dose: 66.0 mg/kg/injection, schedule: Q01DX009 (ip), vehicle: saline with Tween-80
  T/C: 110 % of control
[6]
  T/C: 95 % of control and 120 % of control
dose: 150.0 mg/kg/injection, schedule: Q01DX009 (ip), vehicle: saline with Tween-80
  T/C: 121 % of control

## CCOC(=O)c1cnn(-c2ccccc2)c1C
[16]
  T/C: 104 % of control
[19]
  T/C: 104 % of control
[17]
  T/C: 100 % of control
[20]
  T/C: 87 % of control
[18]
  T/C: 90 % of control
[21]
  T/C: 104 % of control

## CC(=O)OCC(OC(C)=O)C(OC(C)=O)C(C#N)OC(C)=O (centres undefined)
[12]
  T/C: 95 % of control
[14]
  T/C: 95 % of control

## CCCCCCCCCCCCCCCCCCNC(=O)Nc1ccc(C)c(C)c1
[14]
  T/C: 109 % of control
[15]
  T/C: 109 % of control
dose: 400.0 mg/kg/injection, schedule: Q04DX003 (ip), vehicle: saline with Tween-80
  T/C: 109 % of control

## CCNC(C)(C)C(=O)c1ccco1
[4]
  T/C: 100 % of control
[5]
  T/C: 100 % of control

## CCOC(=O)N(CCN(C(=O)OCC)c1ccccc1)c1ccccc1
[2]
  T/C: 98 % of control
[6]
  T/C: 108 % of control
[7]
  T/C: 110 % of control

## CCCCn1cnc2c(SC3CCCC3)ncnc21
dose: 100.0 mg/kg/injection, schedule: Q01DX009 (ip), vehicle: other
  T/C: 100 % of control
dose: 100.0 mg/kg/injection, schedule: Q04DX003 (ip), vehicle: saline sonified
  T/C: 100 % of control
dose: 200.0 mg/kg/injection, schedule: Q01DX009 (ip), vehicle: other
  T/C: 90 % of control
dose: 200.0 mg/kg/injection, schedule: Q04DX003 (ip), vehicle: saline sonified
  T/C: 100 % of control
dose: 400.0 mg/kg/injection, schedule: Q01DX009 (ip), vehicle: other
  T/C: 120 % of control
dose: 400.0 mg/kg/injection, schedule: Q04DX003 (ip), vehicle: saline sonified
  T/C: 100 % of control

## CCCCCCCCCCCCNC(=O)CCC(=O)O
dose: 37.5 mg/kg/injection, schedule: Q01DX009 (ip), vehicle: saline with Tween-80
  T/C: 91 % of control
dose: 75.0 mg/kg/injection, schedule: Q01DX009 (ip), vehicle: saline with Tween-80
  T/C: 87 % of control

## O=C1CN(Cc2ccccc2)CC(=O)N2CCCN12
dose: 50.0 mg/kg/injection, schedule: Q01DX005 (ip), vehicle: saline with Tween-80
  T/C: 101 % of control
dose: 100.0 mg/kg/injection, schedule: Q01DX005 (ip), vehicle: saline with Tween-80
  T/C: 90 % of control
dose: 200.0 mg/kg/injection, schedule: Q01DX005 (ip), vehicle: saline with Tween-80
  T/C: 92 % of control

## CC(C)(C)c1cc(C(C)(C)O)c2c(c1)C(C)(C)OS2(C)Cl (centres undefined)
dose: 12.5 mg/kg/injection, schedule: Q04DX003 (ip), vehicle: saline with Tween-80
  T/C: 100 % of control
[10]
  T/C: 100 % of control
[12]
  T/C: 96 % of control

## OCC(O)C(O)C(O)CO (centres undefined)
dose: 100.0 mg/kg/injection, schedule: Q01DX010 (ip), vehicle: saline
  T/C: 100 % of control
dose: 400.0 mg/kg/injection, schedule: Q01DX010 (ip), vehicle: saline
  T/C: 100 % of control
